Experimental data as given in patent US20250144094A1 (Erasca, Inc., priority 2021, published 2025).

molecular target: Recombinant human ULK1 (1-649) (Homo sapiens (Human), UniProt O75385); experiment: ULK1 ADP Glo kinase activity assay, new method (ULKtide peptide substrate); settings: 25° C., 40 minutes, read-out: ULK1 biochemical IC50
In short: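 GST-tagged human ULK1 (1-649) from Sf9 cells was reacted with ULKtide peptide and ATP for 40 min at 25 °C across 12-point compound dilutions from 10 μM. ADP formed was quantified by ADP-Glo luminescence; IC50 came from four-parameter fits relative to DMSO controls.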

Recombinant human ULK1 (1-649), sequence (O75385 1-649): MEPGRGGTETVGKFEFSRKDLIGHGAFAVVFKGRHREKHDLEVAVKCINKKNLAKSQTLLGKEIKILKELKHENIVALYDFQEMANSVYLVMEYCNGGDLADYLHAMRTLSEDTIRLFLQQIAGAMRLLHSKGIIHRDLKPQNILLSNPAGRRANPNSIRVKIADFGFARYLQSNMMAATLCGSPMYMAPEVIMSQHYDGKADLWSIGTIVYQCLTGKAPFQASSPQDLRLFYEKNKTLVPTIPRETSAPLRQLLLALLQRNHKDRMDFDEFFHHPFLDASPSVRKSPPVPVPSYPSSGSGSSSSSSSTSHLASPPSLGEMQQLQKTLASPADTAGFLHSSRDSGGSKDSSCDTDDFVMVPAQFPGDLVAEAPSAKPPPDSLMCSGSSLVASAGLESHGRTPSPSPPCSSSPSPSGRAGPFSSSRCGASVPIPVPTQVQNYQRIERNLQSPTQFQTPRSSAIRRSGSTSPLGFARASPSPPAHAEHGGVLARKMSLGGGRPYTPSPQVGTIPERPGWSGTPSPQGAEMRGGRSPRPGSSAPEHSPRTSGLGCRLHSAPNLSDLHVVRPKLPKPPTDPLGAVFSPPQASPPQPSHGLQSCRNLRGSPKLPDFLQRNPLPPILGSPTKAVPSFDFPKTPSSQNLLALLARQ

| IC50 | Compound |
| --- | --- |
| ≤ 5 nM | O=C1c2sc(-c3nc(Nc4ccc(N5C[C@@H]6C[C@H]5CN6)cc4C4CC4)ncc3C(F)(F)F)cc2S(=O)(=O)CCN1C1CC1 [Example 305, 7-(2-((4-((1S,4S)-2,5-diazabicyclo[2.2.1]heptan-2-yl)-2-cyclopropylphenyl)amino)-5-(trifluoromethyl)pyrimidin-4-yl)-4-cyclopropyl-3,4-dihydrothieno[2,3-f][1,4]thiazepin-5(2H)-one 1,1-dioxide] |
| ≤ 5 nM | CN1CCS(=O)(=O)c2cc(-c3nc(Nc4cc5c(cc4Cl)CNCC5)ncc3C3CC3)sc2C1=O [Example 283, 7-(2-((7-chloro-1,2,3,4-tetrahydroisoquinolin-6-yl)amino)-5-cyclopropylpyrimidin-4-yl)-4-methyl-3,4-dihydrothieno[2,3-f][1,4]thiazepin-5(2H)-one 1,1-dioxide] |
| ≤ 5 nM | CC(C)c1cc2c(cc1Nc1ncc(C(F)(F)F)c(-c3cc4c(s3)C(=O)N(C3CC3)CCS4(=O)=O)n1)CCN(CC1COC1)C2 [Example 269, 4-cyclopropyl-7-(2-((7-isopropyl-2-(oxetan-3-ylmethyl)-1,2,3,4-tetrahydroisoquinolin-6-yl)amino)-5-(trifluoromethyl)pyrimidin-4-yl)-3,4-dihydrothieno[2,3-f][1,4]thiazepin-5(2H)-one 1,1-dioxide] |
| > 100 nM | Cc1c(Nc2ncc(C(F)(F)F)c(-c3cc4c(s3)C(=O)NCCS4(=O)=O)n2)cnn1C1CCNCC1 [Example 178, 7-(2-((5-methyl-1-(piperidin-4-yl)-1H-pyrazol-4-yl)amino)-5-(trifluoromethyl)pyrimidin-4-yl)-3,4-dihydrothieno[2,3-f][1,4]thiazepin-5(2H)-one 1,1-dioxide] |
| ≤ 5 nM | C[C@@H]1CN(c2ccc(Nc3ncc(C(F)(F)F)c(-c4cc5c(s4)C(=O)N(C4COC4)CCS5(=O)=O)n3)c(C3CC3)n2)CCN1 [Example 375, (R)-7-(2-((2-cyclopropyl-6-(3-methylpiperazin-1-yl)pyridin-3-yl)amino)-5-(trifluoromethyl)pyrimidin-4-yl)-4-(oxetan-3-yl)-3,4-dihydrothieno[2,3-f][1,4]thiazepin-5(2H)-one 1,1-dioxide] |
| ≤ 5 nM | CCc1cc(N2CCN(CC)CC2)ccc1Nc1ncc(C(F)(F)F)c(-c2cc3c(s2)C(=O)N(C)CCS3(=O)=O)n1 [Example 197, 7-(2-((2-ethyl-4-(4-ethylpiperazin-1-yl)phenyl)amino)-5-(trifluoromethyl)pyrimidin-4-yl)-4-methyl-3,4-dihydrothieno[2,3-f][1,4]thiazepin-5(2H)-one 1,1-dioxide] |
| ≤ 5 nM | CCc1cc(N2CCN(C)[C@@H](C)C2)ccc1Nc1ncc(C(F)(F)F)c(-c2cc3c(s2)C(=O)N(C2CC2)CCS3(=O)=O)n1 [Example 361, (S)-4-cyclopropyl-7-(2-((4-(3,4-dimethylpiperazin-1-yl)-2-ethylphenyl)amino)-5-(trifluoromethyl)pyrimidin-4-yl)-3,4-dihydrothieno[2,3-f][1,4]thiazepin-5(2H)-one 1,1-dioxide] |
| ≤ 5 nM | CCc1cc(N2CCN(C)[C@H](C)C2)ccc1Nc1ncc(C(F)(F)F)c(-c2cc3c(s2)C(=O)N(C2CC2)CCS3(=O)=O)n1 [Example 360, (R)-4-cyclopropyl-7-(2-((4-(3,4-dimethylpiperazin-1-yl)-2-ethylphenyl)amino)-5-(trifluoromethyl)pyrimidin-4-yl)-3,4-dihydrothieno[2,3-f][1,4]thiazepin-5(2H)-one 1,1-dioxide] |
| ≤ 5 nM | CCN1CCc2cc(Nc3ncc(C(F)(F)F)c(-c4cc5c(s4)C(=O)N(C)CCS5(=O)=O)n3)c(SC)cc2C1 [Example 188, 7-(2-((2-ethyl-7-(methylthio)-1,2,3,4-tetrahydroisoquinolin-6-yl)amino)-5-(trifluoromethyl)pyrimidin-4-yl)-4-methyl-3,4-dihydrothieno[2,3-f][1,4]thiazepin-5(2H)-one 1,1-dioxide] |
| ≤ 5 nM | Cc1cc2c(cc1Nc1ncc(C(F)(F)F)c(-c3cc4c(s3)C(=O)N(C)CCS4(=O)=O)n1)CCNC2 [Example 184, 4-methyl-7-(2-((7-methyl-1,2,3,4-tetrahydroisoquinolin-6-yl)amino)-5-(trifluoromethyl)pyrimidin-4-yl)-3,4-dihydrothieno[2,3-f][1,4]thiazepin-5(2H)-one 1,1-dioxide] |
| ≤ 5 nM | CCN1CCc2cc(Nc3ncc(C(F)(F)F)c(-c4cc5c(s4)C(=O)N(C)CCS5(=O)=O)n3)c(Cl)cc2C1 [Example 162, 7-(2-((7-chloro-2-ethyl-1,2,3,4-tetrahydroisoquinolin-6-yl)amino)-5-(trifluoromethyl)pyrimidin-4-yl)-4-methyl-3,4-dihydrothieno[2,3-f][1,4]thiazepin-5(2H)-one 1,1-dioxide] |
| ≤ 5 nM | CCN1Cc2cc(F)c(Nc3ncc(C(F)(F)F)c(-c4cc5c(s4)C(=O)N(C)CCS5(=O)=O)n3)cc2C1 [Example 190, 7-(2-((2-ethyl-6-fluoroisoindolin-5-yl)amino)-5-(trifluoromethyl)pyrimidin-4-yl)-4-methyl-3,4-dihydrothieno[2,3-f][1,4]thiazepin-5(2H)-one 1,1-dioxide] |
| ≤ 5 nM | CCc1cc(N2CCN[C@@H](CO)C2)ccc1Nc1ncc(C(F)(F)F)c(-c2cc3c(s2)C(=O)N(C2CC2)CCS3(=O)=O)n1 [Example 407, (R)-4-cyclopropyl-7-(2-((2-ethyl-4-(3-(hydroxymethyl)piperazin-1-yl)phenyl)amino)-5-(trifluoromethyl)pyrimidin-4-yl)-3,4-dihydrothieno[2,3-f][1,4]thiazepin-5(2H)-one 1,1-dioxide] |
| ≤ 5 nM | CN1CCN(c2ccc(Nc3ncc(C(F)(F)F)c(-c4cc5c(s4)C(=O)N(C4CC4)CCS5(=O)=O)n3)c(C3CC3)c2)C[C@@H]1CO [Example 352, (R)-4-cyclopropyl-7-(2-((2-cyclopropyl-4-(3-(hydroxymethyl)-4-methylpiperazin-1-yl)phenyl)amino)-5-(trifluoromethyl)pyrimidin-4-yl)-3,4-dihydrothieno[2,3-f][1,4]thiazepin-5(2H)-one 1,1-dioxide] |
| ≤ 5 nM | CN1CCS(=O)(=O)c2cc(-c3nc(Nc4cc5c(cc4C4CC4)CN(CCF)CC5)ncc3C(F)(F)F)sc2C1=O [Example 236, 7-(2-((7-cyclopropyl-2-(2-fluoroethyl)-1,2,3,4-tetrahydroisoquinolin-6-yl)amino)-5-(trifluoromethyl)pyrimidin-4-yl)-4-methyl-3,4-dihydrothieno[2,3-f][1,4]thiazepin-5(2H)-one 1,1-dioxide] |
| ≤ 5 nM | CCc1cc(N2C[C@@H]3C[C@H]2CN3C)ccc1Nc1ncc(C(F)(F)F)c(-c2cc3c(s2)C(=O)N(C2CC2)CCS3(=O)=O)n1 [Example 321, 4-cyclopropyl-7-(2-((2-ethyl-4-((1S,4S)-5-methyl-2,5-diazabicyclo[2.2.1]heptan-2-yl)phenyl)amino)-5-(trifluoromethyl)pyrimidin-4-yl)-3,4-dihydrothieno[2,3-f][1,4]thiazepin-5(2H)-one 1,1-dioxide] |
| ≤ 5 nM | CN1CCS(=O)(=O)c2cc(-c3nc(Nc4cc5c(cc4C4CC4)CNC5)ncc3C(F)(F)F)sc2C1=O [Example 177, 7-(2-((6-cyclopropylisoindolin-5-yl)amino)-5-(trifluoromethyl)pyrimidin-4-yl)-4-methyl-3,4-dihydrothieno[2,3-f][1,4]thiazepin-5(2H)-one 1,1-dioxide] |
| ≤ 5 nM | CSc1cc2c(cc1Nc1ncc(C(F)(F)F)c(-c3cc4c(s3)C(=O)N(C)CCS4(=O)=O)n1)CCNC2 [Example 161, 4-methyl-7-(2-((7-(methylthio)-1,2,3,4-tetrahydroisoquinolin-6-yl)amino)-5-(trifluoromethyl)pyrimidin-4-yl)-3,4-dihydrothieno[2,3-f][1,4]thiazepin-5(2H)-one 1,1-dioxide] |
| 10 to 50 nM | CN1CCC(c2ccc(Cl)c(Nc3ncc(C(F)(F)F)c(-c4cc5c(s4)C(=O)N(C)CCS5(=O)=O)n3)c2)CC1 [Example 150, 7-(2-((2-chloro-5-(1-methylpiperidin-4-yl)phenyl)amino)-5-(trifluoromethyl)pyrimidin-4-yl)-4-methyl-3,4-dihydrothieno[2,3-f][1,4]thiazepin-5(2H)-one 1,1-dioxide] |
| ≤ 5 nM | C[C@H]1CN(c2ccc(Nc3ncc(C(F)(F)F)c(-c4cc5c(s4)C(=O)N(C4CC4)CCS5(=O)=O)n3)c(C3CC3)c2)C[C@H](C)N1 [Example 327, 4-cyclopropyl-7-(2-((2-cyclopropyl-4-((3S,5S)-3,5-dimethylpiperazin-1-yl)phenyl)amino)-5-(trifluoromethyl)pyrimidin-4-yl)-3,4-dihydrothieno[2,3-f][1,4]thiazepin-5(2H)-one 1,1-dioxide] |

| Compound | IC50 |
| --- | --- |
| CCc1cc(N2C[C@H]3CC[C@@H](C2)N3C)ccc1Nc1ncc(C(F)(F)F)c(-c2cc3c(s2)C(=O)N(C2CC2)CCS3(=O)=O)n1 [Example 325, 4-cyclopropyl-7-(2-((2-ethyl-4-((1R,5S)-8-methyl-3,8-diazabicyclo[3.2.1]octan-3-yl)phenyl)amino)-5-(trifluoromethyl)pyrimidin-4-yl)-3,4-dihydrothieno[2,3-f][1,4]thiazepin-5(2H)-one 1,1-dioxide] | ≤ 5 nM |
| 4-cyclopropyl-7-(2-((4-(1-(2,2-difluoroethyl)piperidin-4-yl)-2-ethylphenyl)amino)-5-(trifluoromethyl)pyrimidin-4-yl)-3,4-dihydrothieno[2,3-f][1,4]thiazepin-5(2H)-one 1,1-dioxide [Example 281] | 5 to 10 nM |
| CN1CCS(=O)(=O)c2cc(-c3nc(Nc4cnc(N5CC6CC(C5)N6)cc4C4CC4)ncc3C(F)(F)F)sc2C1=O [Example 383, 7-(2-((6-(3,6-diazabicyclo[3.1.1]heptan-3-yl)-4-cyclopropylpyridin-3-yl)amino)-5-(trifluoromethyl)pyrimidin-4-yl)-4-methyl-3,4-dihydrothieno[2,3-f][1,4]thiazepin-5(2H)-one 1,1-dioxide] | ≤ 5 nM |
